Results on one compound are retold here after patent US20090253651A1, “DRUG DELIVERY SYSTEM BASED ON REGIOSELECTIVELY AMIDATED HYALURONIC ACID” (EURAND PHARMACEUTICALS LTD., priority 2006, published 2009).

Common to all, as to format: cell-based
Assay [1] deals with HT29 (colon rectal carcinoma). Briefly: Antiproliferative activity, MTT test, HT29. Conditions: Homo sapiens, HT-29; HT29 cells, 5 days treatment, MTT on day 6; read-out: IC50, concentration necessary to reduce the cell growth to 50% of the growth of the control. The method, then:
(§1) Antiproliferative activity of the DDS was determined on three lines of carcinoma (HT29: colon rectal carcinoma, H460: lung carcinoma, H460M2: lung metastatic carcinoma which are CPT sensitive. Cells were incubated in 96-well plates for 5 days in complete RPMI1640 Medium (Sigma Chemical Co.) supplemented with 10% FBS (Hyclone Europe), 2 mM L-glutamine (Hyclone Europe), and 100 U/ml penicillin G and 100 ug/ml streptomycin (Sigma Chemical Co.) at […], and in controlled atmosphere (5% CO2), with irinotecan and DDSs of examples 38, 39, 41; the DDS were tested at doses equimolar with those of the reference, in the range 3-30 nM and 0.1-30 μM.
(§2) Cytotoxicity was determined on day 6 (after 5 days treatments) by the MTT test, by measuring cell viability as the cell metabolic capacity to transform the tetrazolium salt of MTT in the blue formazan, by mitochondrial dehydrogenases; the blue colour is read at 570 nm with a spectrophotometer. The following DDSs were tested.

In assay [2] the test system is H460-M2 (lung metastatic carcinoma). Briefly: Antiproliferative activity, MTT test, H460-M2. Conditions: H460-M2 cells, 5 days treatment, MTT on day 6; read-out: IC50, concentration necessary to reduce the cell growth to 50% of the growth of the control. The protocol: as §1, §2
A further assay has as its system H460 (lung carcinoma). Kind of assay: Antiproliferative activity, MTT test, H460. Conditions: Homo sapiens, NCI-H460; H460 cells, 5 days treatment, MTT on day 6; read-out: IC50, concentration necessary to reduce the cell growth to 50% of the growth of the control. The method, then: as §1, §2
In general terms: Formazan colour is commonly taken as a measure of viable cells.

For `CCc1c2c(nc3ccc(OC(=O)N4CCC(N5CCCCC5)CC4)cc13)-c1cc3c(c(=O)n1C2)COC(=O)[C@]3(O)CC` [Irinotecan, irinotecan], the results for the IC50 (in assay [1]; in assay [2]; with H460 (lung carcinoma)) were 250 nM, 460 nM and 440 nM, respectively.
